According to patent US20120309796A1, “BENZOCYCLOHEPTENE ACETIC ACIDS” (priority 2011, published 2012):

Columns and labels:
[1] = biological target: T1, thromboxane A2 receptor (TP) (Homo sapiens, UniProt P21731); test: Human Thromboxane A2 Receptor Binding Assay; details: human platelets; 10 nM [3H]SQ29548; 1 hour, room temperature
T1 construct: using human platelets as the source of the receptor; from tissue; host or cells: human platelets (whole platelets, 5x10^7 per well)
T1 sequence (P21731 1-343): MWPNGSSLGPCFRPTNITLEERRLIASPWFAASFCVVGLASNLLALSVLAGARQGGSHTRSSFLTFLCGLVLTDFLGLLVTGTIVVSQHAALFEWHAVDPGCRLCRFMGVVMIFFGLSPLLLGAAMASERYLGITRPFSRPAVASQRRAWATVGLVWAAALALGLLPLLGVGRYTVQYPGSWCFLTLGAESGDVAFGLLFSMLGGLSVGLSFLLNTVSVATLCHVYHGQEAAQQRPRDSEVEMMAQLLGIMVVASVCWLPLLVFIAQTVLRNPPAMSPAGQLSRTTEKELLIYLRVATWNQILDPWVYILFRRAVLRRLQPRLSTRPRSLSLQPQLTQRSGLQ
Source text: The thromboxane A2 receptor (TP) plays a key role in hemostasis as its abnormality leads to bleeding disorders. To avoid the potential liability of bleeding disorders, the binding activity of certain compounds of the present invention against TP was monitored by a receptor binding assay using human platelets as the source of the receptor and [^3H]SQ29548 (generically named (5Z)-[5,6-^3H]-7-[(1S,2R,3R,4R)-3-[[2-[(phenylamino)carbonyl]hydrazinyl]methyl]-7-oxabicyclo[2.2.1]hept-2-yl]-5-heptenoic acid, from PerkinElmer Inc.) as the competing radioactive ligand.
The TP binding reactions (0.2 mL) were performed in 96-well plates at room temperature in PBS containing 5×10^7 platelets, 10 mM MgCl2, 0.06% BSA, 10 nM [^3H]SQ29548, and the test compound at various concentrations. […] The radioactivities bound to the platelets were determined using a microplate scintillation counter (TopCount® NXT, from PerkinElmer Inc.) after adding 50 μL of Microscint™ 20 scintillation fluid (from PerkinElmer Inc.) to each well of the filter plates. The radioactivity from non-specific binding was determined by replacing the compound with 10 μM of ramatroban (BAY-u3405, from Cayman Chemical Company) in the reaction mixtures. The radioactivity bound to the platelets in the absence of compound (total binding) was determined by replacing the compound with 0.25% of DMSO in the reaction mixture. […]

human CRTH2 = biological target: T2, human CRTH2 (Homo sapiens, UniProt Q9Y5Y4); test: Human CRTH2 Receptor Binding Assay (whole cell, [3H]ramatroban competition); design: two mammalian expression vectors that harbored human CRTH2 and G-alpha16 cDNAs; expressed in transfected cells; details: CHO-K1 cells expressing human CRTH2 and G-alpha16; 20 nM [3H]ramatroban; 1 hour, room temperature
T2 sequence (Q9Y5Y4 1-395): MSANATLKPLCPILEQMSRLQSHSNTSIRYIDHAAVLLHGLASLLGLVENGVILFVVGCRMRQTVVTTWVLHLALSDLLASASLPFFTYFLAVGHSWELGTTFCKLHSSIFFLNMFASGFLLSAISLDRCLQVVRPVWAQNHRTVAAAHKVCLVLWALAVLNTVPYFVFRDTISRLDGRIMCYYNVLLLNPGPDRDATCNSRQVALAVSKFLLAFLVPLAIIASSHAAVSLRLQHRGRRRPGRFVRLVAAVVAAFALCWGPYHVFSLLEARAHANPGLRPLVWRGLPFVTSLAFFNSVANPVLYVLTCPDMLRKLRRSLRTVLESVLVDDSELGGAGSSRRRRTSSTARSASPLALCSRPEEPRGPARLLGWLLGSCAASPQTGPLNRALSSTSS
How it was run: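 CHO-K1 cells stably co-expressing human CRTH2 and G-alpha16 (1.5×10^5/reaction) incubated 1 h at room temperature with 20 nM [3H]ramatroban in PBS, 10 mM MgCl2, 0.06% BSA. Non-specific binding defined with 10 μM 15(R)-15-methyl PGD2; IC50 from 7-point inhibition of specific binding, 4-parameter logistic fit.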

IC50 [1] [nM] | IC50 (human CRTH2) [nM] | SMILES
3610 | 24.5 | O=C(O)COc1cccc2c1CCCCC2NS(=O)(=O)c1cc(C(F)(F)F)cc(C(F)(F)F)c1 (single isomer, unassigned) [Example 46, [5-(3,5-Bis-trifluoromethyl-benzenesulfonylamino)-6,7,8,9-tetrahydro-5H-benzocyclohepten-1-yloxy]-acetic acid]
642 | 8.9 | O=C(O)COc1cccc2c1CCCCC2NS(=O)(=O)c1cc(C(F)(F)F)cc(C(F)(F)F)c1 (stereo not shown) [Example 1, [5-(3,5-Bis-trifluoromethyl-benzenesulfonylamino)-6,7,8,9-tetrahydro-5H-benzocyclohepten-1-yloxy]-acetic acid]
